{
  "source": "patent US20110160121A1",
  "about": "“UNACYLATED GHRELIN AND ANALOGS AS THERAPEUTIC AGENTS FOR VASCULAR REMODELING IN DIABETIC PATIENTS AND TREATMENT OF CARDIOVASCULAR DISEASE” (ALIZE PHARMA SAS, priority 2008, published 2011)",
  "molecules": {"B1": {"name": "[125I-Tyr4]-UAG (peptide)", "peptide": "GSSY(125I)LSPEHQRVQQRKESKKPPAKLQPR", "modifications": "ends and bridges not checked"}},
  "key": {"[1]": {"system": "CAC membranes", "assay": "Competition binding with [125I-Tyr4]-UAG on CAC membranes", "set-up": "species or system human", "source_text": "The specific binding of [^125I-Tyr^4]-UAG (calculated as difference between binding in the absence, control, and in the presence of UAG) represented about 75% of the control value (P<0.001) and was detected either on fresh (0.25 and 0.26 fmol) or frozen-thawed (0.20 and 0.33 fmol) CAC membranes from two different cell preparations."}, "[2]": {"system": "CAC", "assay": "Detection of ROS in CAC (DCF-DA assay, FACS)", "format": "cell-based, human", "details": "for level of ROS production in AGE-cultured cells: AGE-cultured CAC, FIG. 1C, 1F; for baseline level of ROS production: CAC, compared to untreated cells, FIG. 1B, 1E", "procedure": "First, cell-cycle progression in response to UAG and AG was evaluated. […] To investigate whether this effect relies on inhibition of baseline ROS production, DCF-DA assay was performed. […] H2O2 was used as positive control. AGE-mediated damage signals mainly rely on ROS production (Ref. 29). […] Detection of ROS—DCF-DA (0.5 μM final concentration) was added to CAC in the indicated culture conditions. At the indicated times, the cells were subjected to FACS analysis and processed as previously described (Ref. 22). H2O2 was used as positive control."}, "[3]": {"system": "human microvascular endothelial cells (HMVECs)", "details": "exogenous AG, Ref. 4; cited from earlier work"}, "[4]": {"system": "cardiomyocytes", "details": "Ref. 8; cited from earlier work"}, "[5]": {"system": "CAC", "assay": "Expansion (S phase) of CAC recovered from treated patients, cultured with IL-3", "format": "in vivo, human", "details": "cells recovered from treated diabetic patients; FIG. 3C", "procedure": "To confirm their vascular features, the cells recovered from patients and controls were cultured with IL-3; which is able to induce expansion and arterial morphogenesis of CD45^+ cells derived from both peripheral blood and BM (Ref. 28).\nFlow Cytometry—To analyze CAC cell-cycle progression, cells recovered from diabetic, healthy subjects, NOD/SCID, ob/ob and wt mice, were cultured in EBM-2 supplemented with IL-3 (10 ng/ml), FACS analysis was performed as previously described (Ref. 20). Cell surface molecules were evaluated by flow cytometry as previously described (Ref. 24). Frequency of marker-positive cells is expressed as mean±standard deviation (SD)."}, "[6]": {"system": "CAC", "assay": "CAC mobilization assay in healthy subjects and diabetic patients", "format": "in vivo, human", "details": "diabetic patients compared to normal subjects, treated for 6 hours; FIG. 3B", "procedure": "This observation led to investigate the effect of UAG treatment on BM CAC mobilization. To this end, normal subject and diabetic patients were treated with UAG or saline for 6 hours. After treatment, CAC were recovered from 4 control subjects and 4 diabetic patients, analyzed by FACS analysis and counted. […] Black lines refer to preimmune IgG used as negative control and grey lines refer to surface marker expression. Similar results were obtained when CAC from untreated diabetic patients or untreated or treated healthy subjects were analyzed (data not shown).\nAll the subjects underwent the following testing session: • UAG (3.0 μg/kg/h iv. as infusion for 12 h from 0 to 12 hours); • isotonic saline (infusion from 0 to 12 hours).\nMobilization assay—CAC recovered from healthy subjects and diabetic patients, treated with UAG or saline for 6 h and 12 h, were evaluated. Total number of MNC was counted by 3 independent investigators. The percentage of CAC was calculated by comparing CAC obtained from diabetic patients and healthy donors, treated for 6 h and 12 h with UAG, AG or saline, to CAC recovered at time 0."}, "[7]": {"system": "human umbilical vein endothelial cells (HUVECs)", "details": "Ref. 5; cited from earlier work"}, "[8]": {"system": "human arteries", "details": "Ref. 35; cited from earlier work"}, "[9]": {"system": "CAC", "assay": "CAC cell-cycle progression (percentage of cells in S phase, FACS)", "format": "cell-based, human", "details": "cultured CAC; effect still evident after 7 days of culture; FIG. 1A", "procedure": "First, cell-cycle progression in response to UAG and AG was evaluated. […] To investigate whether this effect relies on inhibition of baseline ROS production, DCF-DA assay was performed. […] H2O2 was used as positive control. AGE-mediated damage signals mainly rely on ROS production (Ref. 29). […] Isolation and Culture of CAC from Peripheral Blood Mononuclear Cells—Peripheral-blood mononuclear cells (PB-MNC) isolated by Fycoll Histopaque 1077 (Sigma) were resuspended in 20% FBS 199 Medium and plated on fibronectin-coated dishes (Biocoat, Becton Dickinson Labware) as described by Hill et al. (Ref. 19). Human UAG studies were performed on CAC recovered from normal donors and diabetic patients. The purity of sorted cells was assessed by FACS analysis (Ref. 20). For experiments, the isolated CAC were cultured under 5% CO2 at 37° C. for 4 days on 20 μg/ml fibronectin-coated dishes in EGM-2 medium containing 10% FBS, hydrocortisone, human Fibroblast Growth Factor, Vascular Endothelial Growth Factor, Insulin Growth Factor 1, ascorbic acid, human Epidermal Growth Factor, gentamicin and amphotericin-B (Cambrex, Walkersville, Md., USA) alone or in combination with 1 μM UAG and 1.2 mg/ml AGE. […] Cell surface molecules were evaluated by flow cytometry as previously described (Ref. 24). Frequency of marker-positive cells is expressed as mean±standard deviation (SD)."}, "[10]": {"target": "specific binding sites for UAG on CAC membranes", "assay": "saturation binding on CAC membranes"}, "[11]": {"target": "specific binding sites for UAG on CAC membranes", "assay": "radioligand binding, frozen-thawed CAC membranes, two cell preparations"}, "[12]": {"target": "specific binding sites for UAG on CAC membranes", "assay": "saturation binding on CAC membranes, Scatchard analysis"}, "[13]": {"target": "specific binding sites for UAG on CAC membranes", "assay": "radioligand binding to CAC membranes; difference between binding without and with 100 nM unlabelled UAG"}, "[14]": {"target": "specific binding sites for UAG on CAC membranes", "assay": "radioligand binding, fresh CAC membranes, two cell preparations"}},
  "note": "Several values for one entry are separate records, joined by “and”; a condition that tells them apart may be missing. Equal values may be shown once. *1 amine or outer side, *2 acyl side, *3 side chain or, on linkers, in order; H or OH if unused. Where no end group is shown, it is not given here. [ ]: non-standard residue; d: D form. The star is where a group is joined. 125I‑Tyr = O=C([C@H](Cc1ccc(O[*:3])c([125I])c1)N[*:1])[*:2]; Octanoyl = CCCCCCCC(=O)*; 125I = [125I]*",
  "data": [
    {"molecule": "Ser-Pro-Glu-His-Gln-Arg-Val-Gln (SPEHQRVQ; not fully specified (C-terminus); printed as Ser-Pro-Glu-His-Gln-Arg-Val-Gln; listed as Homo sapiens) [UAG (6-13)]", "values": [
      {"measurement": "inhibition of binding of [125I-Tyr4]-UAG to CAC membranes", "setting": "[1]; 100 nM competitor, 0.25 nM radioligand, FIG. 5A", "value": "inhibited"},
      {"measurement": "level of ROS production in AGE-cultured cells", "setting": "[2]", "value": "the level of ROS production in AGE-cultured cells was reduced"},
      {"measurement": "baseline level of ROS production", "setting": "[2]", "value": "reduces the baseline level of ROS production"}
    ]},
    {"molecule": "[^125I-Tyr^4]-UAG: radioligand used for binding to CAC membranes (GSS[125I‑Tyr]LSPEHQRVQQRKESKKPPAKLQPR)", "values": [
      {"measurement": "specific binding of [125I-Tyr4]-UAG", "setting": "[1]; difference between binding in the absence and in the presence of 100 nM UAG, P<0.001", "value": "about 75 % of the control value"},
      {"measurement": "specific binding of [125I-Tyr4]-UAG", "setting": "[1]; fresh CAC membranes, two different cell preparations", "value": "0.25 fmol and 0.26 fmol"},
      {"measurement": "specific binding of [125I-Tyr4]-UAG", "setting": "[1]; frozen-thawed CAC membranes, two different cell preparations", "value": "0.20 fmol and 0.33 fmol"}
    ]},
    {"molecule": "AG: 28 amino acid peptide with an n-octanoyl modification on the Ser3 residue; endogenous ligand of GHSR (GSS(Octanoyl)FLSPEHQRVQQRKESKKPPAKLQPR) [reference compound]", "values": [
      {"measurement": "level of ROS production in AGE-cultured cells", "setting": "[2]", "value": "no effects could be detected"},
      {"measurement": "intracellular ROS production in diabetic-recovered cells", "setting": "[2]; CAC isolated from type 2 diabetic patients, treated in vitro, FIG. 1D", "value": "not AG, reduced intracellular ROS production"},
      {"measurement": "baseline level of ROS production", "setting": "[2]", "value": "A protective effect failed to be detected"},
      {"measurement": "cell proliferation, migration, in vitro angiogenesis and ERK2 phosphorylation", "setting": "[3]", "value": "significantly increased cell proliferation, migration, in vitro angiogenesis and ERK2 phosphorylation"},
      {"measurement": "inhibition of experimentally-induced cell death", "setting": "[4]", "value": "inhibit experimentally-induced cell death"},
      {"measurement": "cell expansion (cells in S phase) with IL-3", "setting": "[5]", "value": "not from AG-treated diabetic patients, underwent cell expansion"},
      {"measurement": "number of recovered cells (CAC)", "setting": "[6]", "value": "No statistical differences were detected"},
      {"measurement": "basal and TNF-alpha-induced chemotactic cytokine production and mononuclear cell adhesion", "setting": "[7]", "value": "inhibit basal and TNF-α-induced chemotactic cytokine production and mononuclear cell adhesion"},
      {"measurement": "vasodilator action", "setting": "[8]", "value": "have vasodilator actions in human arteries"},
      {"measurement": "percentage of cells in S phase", "setting": "[9]", "value": "not AG, was able to induce a significant increase"}
    ]},
    {"molecule": "B1", "values": [
      {"measurement": "concentration at maximum specific binding", "setting": "[10]", "value": 2, "unit": "nM"},
      {"measurement": "specific binding", "setting": "[11]", "value": "0.2 fmol and 0.33 fmol"},
      {"measurement": "Bmax (fmol/mg membrane protein)", "setting": "[12]", "value": 10.7},
      {"measurement": "Kd", "setting": "[12]", "value": 0.48, "unit": "nM"},
      {"measurement": "specific binding (% of control value)", "setting": "[13]", "value": 75, "unit": "%"},
      {"measurement": "specific binding", "setting": "[14]", "value": "0.25 fmol and 0.26 fmol"}
    ]}
  ]
}
